Laboratory results: ChEMBL document CHEMBL5385976, “Recognition of arylmethylidene derivatives of imidazothiazolotriazinones as novel tubulin polymerization inhibitors” (RSC Med Chem, 2024)

Key:
Assay type in all cases: functional
[1] = tested on: SK-MEL-5; test: Anticancer activity against human SK-MEL-5 cells assessed as cell growth at 10 umol/L incubated for 48 hrs by SRB assay relative to control; conditions: SK-MEL-5, 48 h, dose 10 µmol/L, read-out: Activity
[2] = tested on: NCI-H460; test: Anticancer activity against human NCI-H460 cells assessed as cell growth at 10 umol/L incubated for 48 hrs by SRB assay relative to control; conditions: NCI-H460, 48 h, dose 10 µmol/L, read-out: Activity
[3] = tested on: K562; test: Induction of cell cycle arrest in human K562 cells at G1 phase at 0.5 uM incubated for 3 days by RNase/PI staining based flow cytometry (reference value: 50 %); conditions: time 3 day
[4] = tested on: UACC-257; test: Anticancer activity against human UACC-257 cells assessed as cell growth at 10 umol/L incubated for 48 hrs by SRB assay relative to control; conditions: UACC-257, 48 h, dose 10 µmol/L, read-out: Activity
[5] = tested on: K562; test: Induction of apoptosis in human K562 cells at 0.5 uM incubated for 3 days by RNase/PI staining based flow cytometry (reference value: 1.4 %); conditions: time 3 day
[6] = tested on: PC-3; test: Anticancer activity against human PC-3 cells assessed as cell growth at 10 umol/L incubated for 48 hrs by SRB assay relative to control; conditions: PC-3, 48 h, dose 10 µmol/L, read-out: Activity
[7] = tested on: K562; test: Induction of cell cycle arrest in human K562 cells at S phase at 0.5 uM incubated for 3 days by RNase/PI staining based flow cytometry (reference value: 16 %); conditions: time 3 day
[8] = tested on: CCRF-CEM; test: Anticancer activity against human CCRF-CEM cells assessed as cell growth at 10 umol/L incubated for 48 hrs by SRB assay relative to control; conditions: dose 10 µmol/L, read-out: Activity
[9] = tested on: HT-29; test: Anticancer activity against human HT-29 cells assessed as cell growth at 10 umol/L incubated for 48 hrs by SRB assay relative to control; conditions: HT-29, 48 h, dose 10 µmol/L, read-out: Activity
[10] = tested on: HCT-15; test: Anticancer activity against human HCT-15 cells assessed as cell growth at 10 umol/L incubated for 48 hrs by SRB assay relative to control; conditions: HCT-15, 48 h, dose 10 µmol/L, read-out: Activity
[11] = tested on: NCI-H322M; test: Anticancer activity against human NCI-H322M cells assessed as cell growth at 10 umol/L incubated for 48 hrs by SRB assay relative to control; conditions: dose 10 µmol/L, read-out: Activity
[12] = tested on: HL-60(TB); test: Anticancer activity against human HL-60(TB) cells assessed as cell growth at 10 umol/L incubated for 48 hrs by SRB assay relative to control; conditions: HL-60, 48 h, dose 10 µmol/L, read-out: Activity
[13] = tested on: SNB-75; test: Anticancer activity against human SNB-75 cells assessed as cell growth at 10 umol/L incubated for 48 hrs by SRB assay relative to control; conditions: SNB-75, 48 h, dose 10 µmol/L, read-out: Activity
[14] = tested on: Panel NCI-60 (60 carcinoma cell lines); test: Antiproliferative activity against human panel NCI-60 (60 carcinoma cell lines) assessed as mean cell growth at 10 umol/L incubated for 48 hrs by SRB assay relative to control; conditions: dose 10 µmol/L, at 10 µM
[15] = tested on: Malme-3M; test: Anticancer activity against human Malme-3M cells assessed as cell growth at 10 umol/L incubated for 48 hrs by SRB assay relative to control; conditions: dose 10 µmol/L, read-out: Activity
[16] = tested on: M14; test: Anticancer activity against human M14 cells assessed as cell growth at 10 umol/L incubated for 48 hrs by SRB assay relative to control; conditions: M14, 48 h, dose 10 µmol/L, read-out: Activity
[17] = tested on: MOLT-4; test: Anticancer activity against human MOLT-4 cells assessed as cell growth at 10 umol/L incubated for 48 hrs by SRB assay relative to control; conditions: MOLT-4, 48 h, dose 10 µmol/L, read-out: Activity
[18] = tested on: MDA-MB-231; test: Anticancer activity against human MDA-MB-231 cells assessed as cell growth at 10 umol/L incubated for 48 hrs by SRB assay relative to control; conditions: MDA-MB-231, 48 h, dose 10 µmol/L, read-out: Activity
[19] = tested on: 786-0; test: Anticancer activity against human 786-0 cells assessed as cell growth at 10 umol/L incubated for 48 hrs by SRB assay relative to control; conditions: 786-0, 48 h, dose 10 µmol/L, read-out: Activity
[20] = tested on: BT-549; test: Anticancer activity against human BT-549 cells assessed as cell growth at 10 umol/L incubated for 48 hrs by SRB assay relative to control; conditions: BT-549, 48 h, dose 10 µmol/L, read-out: Activity
[21] = tested on: SN12C; test: Anticancer activity against human SN12C cells assessed as cell growth at 10 umol/L incubated for 48 hrs by SRB assay relative to control; conditions: dose 10 µmol/L, read-out: Activity
[22] = tested on: SF-295; test: Anticancer activity against human SF-295 cells assessed as cell growth at 10 umol/L incubated for 48 hrs by SRB assay relative to control; conditions: SF-295, 48 h, dose 10 µmol/L, read-out: Activity
[23] = tested on: CAKI-1; test: Anticancer activity against human CAKI-1 cells assessed as cell growth at 10 umol/L incubated for 48 hrs by SRB assay relative to control; conditions: CAKI-1, 48 h, dose 10 µmol/L, read-out: Activity
[24] = tested on: NCI-H23; test: Anticancer activity against human NCI-H23 cells assessed as cell growth at 10 umol/L incubated for 48 hrs by SRB assay relative to control; conditions: NCI-H23, 48 h, dose 10 µmol/L, read-out: Activity
[25] = tested on: K562; test: Induction of cell cycle arrest in human K562 cells at G2/M phase at 0.5 uM incubated for 3 days by RNase/PI staining based flow cytometry (reference value: 31 %); conditions: time 3 day
[26] = tested on: LOX IMVI; test: Anticancer activity against human LOX IMVI cells assessed as cell growth at 10 umol/L incubated for 48 hrs by SRB assay relative to control; conditions: dose 10 µmol/L, read-out: Activity
[27] = tested on: K562; test: Anticancer activity against human K562 cells assessed as cell growth at 10 umol/L incubated for 48 hrs by SRB assay relative to control; conditions: K562, 48 h, dose 10 µmol/L, read-out: Activity
[28] = tested on: ACHN; test: Anticancer activity against human ACHN cells assessed as cell growth at 10 umol/L incubated for 48 hrs by SRB assay relative to control; conditions: dose 10 µmol/L, read-out: Activity
[29] = tested on: SW-620; test: Anticancer activity against human SW620 cells assessed as cell growth at 10 umol/L incubated for 48 hrs by SRB assay relative to control; conditions: SW-620, 48 h, dose 10 µmol/L, read-out: Activity
[30] = tested on: HCC 2998; test: Anticancer activity against human HCC 2998 cells assessed as cell growth at 10 umol/L incubated for 48 hrs by SRB assay relative to control; conditions: HCC 2998, 48 h, dose 10 µmol/L, read-out: Activity
[31] = tested on: EKVX; test: Anticancer activity against human EKVX cells assessed as cell growth at 10 umol/L incubated for 48 hrs by SRB assay relative to control; conditions: dose 10 µmol/L, read-out: Activity
[32] = tested on: SNB-19; test: Anticancer activity against human SNB-19 cells assessed as cell growth at 10 umol/L incubated for 48 hrs by SRB assay relative to control; conditions: SNB-19, 48 h, dose 10 µmol/L, read-out: Activity

Row | Compound | growth at 10 µM [1] | growth at 10 µM [2] | Activity [3] | growth at 10 µM [4] | Activity [5] | growth at 10 µM [6] | Activity [7] | growth at 10 µM [8] | growth at 10 µM [9] | growth at 10 µM [10] | growth at 10 µM [11] | growth at 10 µM [12] | growth at 10 µM [13] | Activity [14] | growth at 10 µM [15] | growth at 10 µM [16] | growth at 10 µM [17] | growth at 10 µM [18] | growth at 10 µM [19] | growth at 10 µM [20] | also measured
1 | COc1cc2c(c(OC)c1OC)-c1ccc(OC)c(=O)cc1[C@@H](NC(C)=O)CC2 [COLCHICINE] | 30.7% | 2.9% | 18% | 24.9% | 3.1% | -28.6% | 19% | -38.2% | -29.9% | -16.8% | 36.1% | 13% | 19.3% | 8.4% | 39% | 1.7% | 6.7% | 11.7% | 15.4% | 55.1% | growth at 10 µM [21]: 46.8%; growth at 10 µM [22]: -10.6%; growth at 10 µM [23]: 20.3%; growth at 10 µM [24]: 12.6%; Activity [25]: 56%; growth at 10 µM [26]: 26.5%; growth at 10 µM [27]: -25.7%; growth at 10 µM [28]: 30.5%; growth at 10 µM [29]: 26.4%; growth at 10 µM [30]: -59%; growth at 10 µM [31]: 35.8%; growth at 10 µM [32]: 19%
2 | CCN1C(=O)N(CC)C2C1NN=c1s/c(=C\c3ccc(Cl)cc3Cl)c(=O)n12 (centres undefined) | 66.1% | 5.7% | 13% | 68.6% | 5% | 24.6% | 14% | -52.1% | 2.8% | 9.5% | 42.4% | 9.4% | 19.7% | 18.2% | 50.4% | 13.8% | 12.9% | 12.4% | 20.6% | 15.9% | growth at 10 µM [21]: 21.5%; growth at 10 µM [22]: -12.6%; growth at 10 µM [23]: 21.1%; growth at 10 µM [24]: 28.4%; Activity [25]: 65%; growth at 10 µM [26]: 18.3%; growth at 10 µM [27]: 83.7%; growth at 10 µM [28]: 26.7%; growth at 10 µM [29]: 20.5%; growth at 10 µM [30]: 7.2%; growth at 10 µM [31]: 50.1%; growth at 10 µM [32]: 27.9%
